Measured values published in PubChem BioAssay (NCI).
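Step 1: Grow cells in 96-well plates. Step 2: Expose to compound for 48 hours at 5 concentrations. Step 3: Interpolate endpoints linearly; if unreached, use highest concentration. TGI denotes the concentration required for complete inhibition of growth.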

Legend:
Assay in all cases: DTP human tumour cell line panel, 48 h
MDA-N = tested on: MDA-N
CAKI-1 renal = tested on: CAKI-1 renal
U251 CNS = tested on: U251 CNS
A498 renal = tested on: A498 renal
HOP-92 NSCLC = tested on: HOP-92 NSCLC
SK-MEL-28 melanoma = tested on: SK-MEL-28 melanoma
OVCAR-3 ovarian = tested on: OVCAR-3 ovarian
RXF 393 renal = tested on: RXF 393 renal
SN12C renal = tested on: SN12C renal
KM12 colon = tested on: KM12 colon
COLO 205 colon = tested on: COLO 205 colon
UACC-62 melanoma = tested on: UACC-62 melanoma
UO-31 renal = tested on: UO-31 renal
UACC-257 melanoma = tested on: UACC-257 melanoma
SF-268 CNS = tested on: SF-268 CNS
SNB-75 CNS = tested on: SNB-75 CNS
HT29 colon = tested on: HT29 colon
NCI-H460 lung = tested on: NCI-H460 lung
T-47D breast = tested on: T-47D breast
OVCAR-4 ovarian = tested on: OVCAR-4 ovarian
HOP-62 NSCLC = tested on: HOP-62 NSCLC
SF-539 CNS = tested on: SF-539 CNS
MOLT-4 leukemia = tested on: MOLT-4 leukemia
LOX IMVI melanoma = tested on: LOX IMVI melanoma
CCRF-CEM leukemia = tested on: CCRF-CEM leukemia
ACHN renal = tested on: ACHN renal
RPMI-8226 leukemia = tested on: RPMI-8226 leukemia
SW-620 colon = tested on: SW-620 colon
SK-OV-3 ovarian = tested on: SK-OV-3 ovarian
A549 NSCLC = tested on: A549 NSCLC
PC-3 prostate = tested on: PC-3 prostate
MALME-3M melanoma = tested on: MALME-3M melanoma
NCI/ADR-RES ovarian = tested on: NCI/ADR-RES ovarian
M14 melanoma = tested on: M14 melanoma
MCF7 breast = tested on: MCF7 breast
NCI-H226 lung = tested on: NCI-H226 lung
SF-295 CNS = tested on: SF-295 CNS
SR leukemia = tested on: SR leukemia
TK-10 renal = tested on: TK-10 renal
SK-MEL-2 melanoma = tested on: SK-MEL-2 melanoma
NCI-H23 lung = tested on: NCI-H23 lung
NCI-H522 lung = tested on: NCI-H522 lung
SK-MEL-5 melanoma = tested on: SK-MEL-5 melanoma
HCC-2998 colon = tested on: HCC-2998 colon
K-562 leukemia = tested on: K-562 leukemia
BT-549 breast = tested on: BT-549 breast
OVCAR-8 ovarian = tested on: OVCAR-8 ovarian
MDA-MB-231 breast = tested on: MDA-MB-231 breast
HCT-116 colon = tested on: HCT-116 colon
OVCAR-5 ovarian = tested on: OVCAR-5 ovarian
HS 578T breast = tested on: HS 578T breast
MDA-MB-435 = tested on: MDA-MB-435
DU-145 prostate = tested on: DU-145 prostate
EKVX NSCLC = tested on: EKVX NSCLC
786-0 renal = tested on: 786-0 renal
SNB-19 CNS = tested on: SNB-19 CNS
HL-60(TB) leukemia = tested on: HL-60(TB) leukemia
HCT-15 colon = tested on: HCT-15 colon
IGROV1 ovarian = tested on: IGROV1 ovarian

COc1ccc(/C=C/C(=O)NCC(NC(=O)/C=C/c2ccc(OC)c(OC)c2)C(=O)O)cc1OC (centres undefined) showed a TGI (MDA-N) greater than 100 µM, a TGI (CAKI-1 renal) greater than 100 µM and a TGI (U251 CNS) greater than 100 µM. It also gave a TGI (A498 renal) greater than 100 µM, a TGI (HOP-92 NSCLC) of 0.74 µM and a TGI (SK-MEL-28 melanoma) greater than 100 µM. For the same compound, the TGI (OVCAR-3 ovarian) was greater than 100 µM, the TGI (RXF 393 renal) was greater than 100 µM and the TGI (SN12C renal) was greater than 100 µM. For the same compound, the TGI (KM12 colon) was greater than 100 µM, the TGI (COLO 205 colon) was greater than 100 µM and the TGI (UACC-62 melanoma) was greater than 100 µM. It also gave a TGI (UO-31 renal) greater than 100 µM, a TGI (UACC-257 melanoma) greater than 100 µM and a TGI (SF-268 CNS) greater than 100 µM. For the same compound, the TGI (SNB-75 CNS) was greater than 100 µM, the TGI (HT29 colon) was greater than 100 µM and the TGI (NCI-H460 lung) was greater than 100 µM. The TGI (T-47D breast) was greater than 100 µM, the TGI (OVCAR-4 ovarian) was greater than 100 µM and the TGI (HOP-62 NSCLC) was greater than 100 µM. For the same compound, the TGI (SF-539 CNS) was greater than 100 µM, the TGI (MOLT-4 leukemia) was greater than 100 µM and the TGI (LOX IMVI melanoma) was greater than 100 µM. The TGI (CCRF-CEM leukemia) was greater than 100 µM, the TGI (ACHN renal) was greater than 100 µM and the TGI (RPMI-8226 leukemia) was greater than 100 µM. For the same compound, the TGI (SW-620 colon) was greater than 100 µM, the TGI (SK-OV-3 ovarian) was greater than 100 µM and the TGI (A549 NSCLC) was greater than 100 µM. It also gave a TGI (PC-3 prostate) greater than 100 µM, a TGI (MALME-3M melanoma) greater than 100 µM and a TGI (NCI/ADR-RES ovarian) of 0.0691 µM. For the same compound, the TGI (M14 melanoma) was greater than 100 µM, the TGI (MCF7 breast) was greater than 100 µM and the TGI (NCI-H226 lung) was greater than 100 µM. For the same compound, the TGI (SF-295 CNS) was greater than 100 µM, the TGI (SR leukemia) was greater than 100 µM and the TGI (TK-10 renal) was greater than 100 µM. For the same compound, the TGI (SK-MEL-2 melanoma) was greater than 100 µM, the TGI (NCI-H23 lung) was greater than 100 µM and the TGI (NCI-H522 lung) was greater than 100 µM. It also gave a TGI (SK-MEL-5 melanoma) greater than 100 µM, a TGI (HCC-2998 colon) greater than 100 µM and a TGI (K-562 leukemia) greater than 100 µM. The TGI (BT-549 breast) was greater than 100 µM, the TGI (OVCAR-8 ovarian) was greater than 100 µM and the TGI (MDA-MB-231 breast) was greater than 100 µM. The TGI (HCT-116 colon) was greater than 100 µM, the TGI (OVCAR-5 ovarian) was greater than 100 µM and the TGI (HS 578T breast) was greater than 100 µM. The TGI (MDA-MB-435) was greater than 100 µM, the TGI (DU-145 prostate) was greater than 100 µM and the TGI (EKVX NSCLC) was greater than 100 µM. It also gave a TGI (786-0 renal) greater than 100 µM and a TGI (SNB-19 CNS) greater than 100 µM.

Compound CN(C)c1ccc(C(C#N)N2CCCN(C(C#N)c3ccc(N(C)C)cc3)C2c2ccc(N(C)C)cc2)cc1 (centres undefined) has a TGI (MDA-N) greater than 100 µM, a TGI (CAKI-1 renal) greater than 100 µM and a TGI (U251 CNS) greater than 100 µM. It also gave a TGI (A498 renal) greater than 100 µM, a TGI (HOP-92 NSCLC) greater than 100 µM and a TGI (SK-MEL-28 melanoma) greater than 100 µM. It also gave a TGI (HL-60(TB) leukemia) greater than 100 µM, a TGI (OVCAR-3 ovarian) greater than 100 µM and a TGI (RXF 393 renal) greater than 100 µM. For the same compound, the TGI (SN12C renal) was greater than 100 µM, the TGI (KM12 colon) was greater than 100 µM and the TGI (COLO 205 colon) was greater than 100 µM. The TGI (UACC-62 melanoma) was greater than 100 µM, the TGI (UO-31 renal) was greater than 100 µM and the TGI (UACC-257 melanoma) was greater than 100 µM. The TGI (SF-268 CNS) was greater than 100 µM, the TGI (SNB-75 CNS) was greater than 100 µM and the TGI (HT29 colon) was greater than 100 µM. The TGI (T-47D breast) was greater than 100 µM, the TGI (OVCAR-4 ovarian) was greater than 100 µM and the TGI (HOP-62 NSCLC) was greater than 100 µM. It also gave a TGI (SF-539 CNS) greater than 100 µM, a TGI (MOLT-4 leukemia) greater than 100 µM and a TGI (HCT-15 colon) greater than 100 µM. The TGI (LOX IMVI melanoma) was greater than 100 µM, the TGI (CCRF-CEM leukemia) was greater than 100 µM and the TGI (ACHN renal) was greater than 100 µM. The TGI (RPMI-8226 leukemia) was greater than 100 µM, the TGI (SW-620 colon) was greater than 100 µM and the TGI (SK-OV-3 ovarian) was greater than 100 µM. For the same compound, the TGI (A549 NSCLC) was greater than 100 µM, the TGI (PC-3 prostate) was greater than 100 µM and the TGI (MALME-3M melanoma) was greater than 100 µM. It also gave a TGI (NCI/ADR-RES ovarian) greater than 100 µM, a TGI (M14 melanoma) greater than 100 µM and a TGI (MCF7 breast) greater than 100 µM. For the same compound, the TGI (NCI-H226 lung) was greater than 100 µM, the TGI (SF-295 CNS) was greater than 100 µM and the TGI (SR leukemia) was greater than 100 µM. The TGI (TK-10 renal) was greater than 100 µM, the TGI (SK-MEL-2 melanoma) was greater than 100 µM and the TGI (NCI-H23 lung) was greater than 100 µM. For the same compound, the TGI (NCI-H522 lung) was greater than 100 µM, the TGI (SK-MEL-5 melanoma) was greater than 100 µM and the TGI (K-562 leukemia) was greater than 100 µM. The TGI (BT-549 breast) was greater than 100 µM, the TGI (OVCAR-8 ovarian) was greater than 100 µM and the TGI (IGROV1 ovarian) was greater than 100 µM. The TGI (MDA-MB-231 breast) was greater than 100 µM, the TGI (HCT-116 colon) was greater than 100 µM and the TGI (OVCAR-5 ovarian) was greater than 100 µM. The TGI (HS 578T breast) was greater than 100 µM, the TGI (MDA-MB-435) was greater than 100 µM and the TGI (DU-145 prostate) was greater than 100 µM. The TGI (EKVX NSCLC) was greater than 100 µM, the TGI (786-0 renal) was greater than 100 µM and the TGI (SNB-19 CNS) was greater than 100 µM.

For N#C/C(=C\c1ccc(Cl)cc1)c1nc2ccccc2c(=O)[nH]1, the TGI (MDA-N) was greater than 100 µM, the TGI (CAKI-1 renal) was greater than 100 µM and the TGI (U251 CNS) was greater than 100 µM. It also gave a TGI (HOP-92 NSCLC) of 39.9 µM, a TGI (SK-MEL-28 melanoma) greater than 100 µM and a TGI (HL-60(TB) leukemia) greater than 100 µM. It also gave a TGI (RXF 393 renal) greater than 100 µM, a TGI (SN12C renal) greater than 100 µM and a TGI (KM12 colon) greater than 100 µM. For the same compound, the TGI (COLO 205 colon) was greater than 100 µM, the TGI (UACC-62 melanoma) was greater than 100 µM and the TGI (UO-31 renal) was greater than 100 µM. It also gave a TGI (UACC-257 melanoma) greater than 100 µM, a TGI (SF-268 CNS) greater than 100 µM and a TGI (SNB-75 CNS) of 61.7 µM. For the same compound, the TGI (HT29 colon) was greater than 100 µM, the TGI (NCI-H460 lung) was greater than 100 µM and the TGI (T-47D breast) was greater than 100 µM. It also gave a TGI (OVCAR-4 ovarian) greater than 100 µM, a TGI (HOP-62 NSCLC) greater than 100 µM and a TGI (SF-539 CNS) greater than 100 µM. For the same compound, the TGI (MOLT-4 leukemia) was greater than 100 µM, the TGI (HCT-15 colon) was greater than 100 µM and the TGI (LOX IMVI melanoma) was greater than 100 µM. For the same compound, the TGI (CCRF-CEM leukemia) was greater than 100 µM, the TGI (ACHN renal) was greater than 100 µM and the TGI (RPMI-8226 leukemia) was greater than 100 µM. For the same compound, the TGI (SW-620 colon) was greater than 100 µM, the TGI (SK-OV-3 ovarian) was greater than 100 µM and the TGI (A549 NSCLC) was greater than 100 µM. For the same compound, the TGI (PC-3 prostate) was greater than 100 µM, the TGI (MALME-3M melanoma) was greater than 100 µM and the TGI (NCI/ADR-RES ovarian) was greater than 100 µM. The TGI (M14 melanoma) was greater than 100 µM, the TGI (MCF7 breast) was greater than 100 µM and the TGI (NCI-H226 lung) was greater than 100 µM. It also gave a TGI (SF-295 CNS) greater than 100 µM, a TGI (SR leukemia) greater than 100 µM and a TGI (TK-10 renal) greater than 100 µM. For the same compound, the TGI (SK-MEL-2 melanoma) was greater than 100 µM, the TGI (NCI-H522 lung) was greater than 100 µM and the TGI (SK-MEL-5 melanoma) was greater than 100 µM. It also gave a TGI (HCC-2998 colon) greater than 100 µM, a TGI (K-562 leukemia) greater than 100 µM and a TGI (BT-549 breast) of 69.2 µM. For the same compound, the TGI (OVCAR-8 ovarian) was greater than 100 µM, the TGI (IGROV1 ovarian) was greater than 100 µM and the TGI (MDA-MB-231 breast) was greater than 100 µM. It also gave a TGI (HCT-116 colon) greater than 100 µM, a TGI (OVCAR-5 ovarian) greater than 100 µM and a TGI (HS 578T breast) of 60.6 µM. It also gave a TGI (MDA-MB-435) greater than 100 µM, a TGI (DU-145 prostate) greater than 100 µM and a TGI (EKVX NSCLC) greater than 100 µM. It also gave a TGI (786-0 renal) greater than 100 µM and a TGI (SNB-19 CNS) greater than 100 µM.
